Laboratory results reported in the NIST ThermoML archive (doi:10.1016/j.fluid.2009.01.012).
Numbers after ± are expanded uncertainties.

Conditions: DTA

CC(C)C[P+](C)(CC(C)C)CC(C)C.Cc1ccc(S(=O)(=O)[O-])cc1 [triisobutylmethylphosphonium p-toluenesulfonate]
Glass transition temperature: -47.6 ± 5 °C
